Reference: ChEMBL document CHEMBL1201862, “PubChem BioAssay data set” (2004)
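Where inhibition never reached the appropriate level, the endpoint shown equals the highest concentration tested. Otherwise, values were interpolated linearly from a five-concentration, 48-hour dose response in 96-well plates. At the GI50, growth is halved.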 Activity calls are given as the source filed them. Cut-off read from the data, not from the text of the source: active = GI50 up to about 1.1 µM and inactive = higher.

Key:
Test in all cases: NCI anticancer screen, dose series, 48 h
[1] = tested on: EKVX
[2] = tested on: NCI-H23
[3] = tested on: U-251
[4] = tested on: UACC-257
[5] = tested on: RPMI-8226
[6] = tested on: ACHN
[7] = tested on: NCI-H522
[8] = tested on: CCRF-CEM
[9] = tested on: HT-29
[10] = tested on: LOX IMVI
[11] = tested on: SN12C
[12] = tested on: SK-MEL-28
[13] = tested on: NCI-H226
[14] = tested on: HCT-116
[15] = tested on: UO-31
[16] = tested on: SW-620
[17] = tested on: CAKI-1

Row | Structure (SMILES) | GI50 [1] | GI50 [2] | GI50 [3] | GI50 [4] | GI50 [5] | GI50 [6] | GI50 [7] | GI50 [8] | GI50 [9] | GI50 [10] | GI50 [11] | GI50 [12] | GI50 [13] | GI50 [14] | GI50 [15] | GI50 [16] | GI50 [17]
1 | COC(=O)C(/C(=N/N)C(=O)Nc1cc(Cl)ccc1Cl)c1nc2ccc([N+](=O)[O-])cc2nc1O (centres undefined) | 72.8 µM (inactive) | > 100 µM (inactive) | > 100 µM (inactive) | > 100 µM (inactive) | > 100 µM (inactive) | 39.1 µM (inactive) | 21.3 µM (inactive) | 25 µM (inactive) | > 100 µM (inactive) | > 100 µM (inactive) | > 100 µM (inactive) | > 100 µM (inactive) | > 100 µM (inactive) | > 100 µM (inactive) | 40 µM (inactive) | > 100 µM (inactive) | 
2 | O=c1[nH]nc2ccccc2c1Cc1ccccc1 | > 100 µM (inactive) | > 100 µM (inactive) | > 100 µM (inactive) | > 100 µM (inactive) | > 100 µM (inactive) | > 100 µM (inactive) |  | > 100 µM (inactive) | > 100 µM (inactive) | > 100 µM (inactive) | > 100 µM (inactive) | > 100 µM (inactive) | > 100 µM (inactive) | > 100 µM (inactive) | > 100 µM (inactive) | > 100 µM (inactive) | > 100 µM (inactive)
3 | CC(=O)C1C(=O)N(C(C)C)C[C@@H]2CCC(=O)C[C@H]12 (some centres undefined) | > 100 µM (inactive) | > 100 µM (inactive) | > 100 µM (inactive) | > 100 µM (inactive) | > 100 µM (inactive) |  | > 100 µM (inactive) | > 100 µM (inactive) | > 100 µM (inactive) | > 100 µM (inactive) | > 100 µM (inactive) | > 100 µM (inactive) |  | > 100 µM (inactive) | > 100 µM (inactive) | > 100 µM (inactive) | > 100 µM (inactive)
4 | CCN(N=O)C1C2(CCCC2)NC(=O)C12CCCC2 (centres undefined) | > 100 µM (inactive) | > 100 µM (inactive) | > 100 µM (inactive) | > 100 µM (inactive) | > 100 µM (inactive) | > 100 µM (inactive) |  | > 100 µM (inactive) | > 100 µM (inactive) | > 100 µM (inactive) | > 100 µM (inactive) | > 100 µM (inactive) | > 100 µM (inactive) | > 100 µM (inactive) | > 100 µM (inactive) | > 100 µM (inactive) | 
5 | CCOC(=O)c1nc2ccc(Cl)cc2c2c1CCO2 | > 100 µM (inactive) | > 100 µM (inactive) | 74.6 µM (inactive) | > 100 µM (inactive) |  | 55 µM (inactive) | 34.7 µM (inactive) | 79.4 µM (inactive) | > 100 µM (inactive) | 59.6 µM (inactive) | 82 µM (inactive) | > 100 µM (inactive) | > 100 µM (inactive) | 57 µM (inactive) |  | > 100 µM (inactive) | 51.8 µM (inactive)
6 | CC(C)C1CCC/C=C/C=C/C=C/C=C/C(OC2OC(C)C(O)C(N)C2O)CC2OC(O)(CC(O)CC(O)C(O)CCC(=O)O1)CC(O)C2C(=O)O (centres undefined) |  |  | > 52.5 µM (inactive) |  | > 52.5 µM (inactive) | > 52.5 µM (inactive) | > 52.5 µM (inactive) | > 52.5 µM (inactive) | > 52.5 µM (inactive) |  | > 52.5 µM (inactive) | > 52.5 µM (inactive) |  | > 52.5 µM (inactive) | > 52.5 µM (inactive) | > 52.5 µM (inactive) | > 52.5 µM (inactive)
7 | C=CNC(=O)NC(=O)CSc1nc(=O)c(-c2ccccc2NC(=O)C(F)(F)F)n[nH]1 | 75 µM (inactive) | 34.8 µM (inactive) | 23.7 µM (inactive) |  |  |  | 51.6 µM (inactive) | > 100 µM (inactive) | > 100 µM (inactive) | > 100 µM (inactive) | > 100 µM (inactive) | 66.2 µM (inactive) | 10.7 µM (inactive) | > 100 µM (inactive) | > 100 µM (inactive) | > 100 µM (inactive) | > 100 µM (inactive)
8 | O=C(c1ccc(Cl)cc1)N(C(=S)N1CCN(c2ccccn2)CC1)C1CCCCC1 |  | 96.8 µM (inactive) | 37.2 µM (inactive) | 30.8 µM (inactive) | 25.5 µM (inactive) | 43.6 µM (inactive) | 38.6 µM (inactive) | 48.5 µM (inactive) | 55.3 µM (inactive) | 56.1 µM (inactive) | > 100 µM (inactive) | > 100 µM (inactive) | 18.2 µM (inactive) | 36.6 µM (inactive) | 48.3 µM (inactive) | 83.6 µM (inactive) | > 100 µM (inactive)
9 | O=C(O)c1ccccc1/N=N/c1ccc2oc(=O)c(C(=O)Nc3ccccc3)cc2c1 | 30.1 µM (inactive) | 34 µM (inactive) | 42.4 µM (inactive) | 24.6 µM (inactive) | 19.1 µM (inactive) | 50.2 µM (inactive) | 34.8 µM (inactive) | 28.6 µM (inactive) | 38.4 µM (inactive) | 35.9 µM (inactive) | 45.1 µM (inactive) | 36.6 µM (inactive) | 25.7 µM (inactive) | 29.6 µM (inactive) | 37.1 µM (inactive) | 49.7 µM (inactive) | 
10 | CCCN(CCCN)/[N+]([O-])=N\O | 0.24 µM (active) | > 100 µM (inactive) | > 100 µM (inactive) | > 100 µM (inactive) | > 100 µM (inactive) | > 100 µM (inactive) | > 100 µM (inactive) | > 100 µM (inactive) | > 100 µM (inactive) |  | > 100 µM (inactive) | > 100 µM (inactive) | > 100 µM (inactive) | > 100 µM (inactive) | > 100 µM (inactive) | > 100 µM (inactive) | > 100 µM (inactive)
11 | C[S+](C)CCOC(=O)C(=[N+]=[N-])c1ccc([N+](=O)[O-])cc1 | > 100 µM (inactive) | > 100 µM (inactive) | > 100 µM (inactive) | > 100 µM (inactive) | > 100 µM (inactive) | > 100 µM (inactive) | > 100 µM (inactive) | > 100 µM (inactive) | > 100 µM (inactive) |  | > 100 µM (inactive) |  | > 100 µM (inactive) | > 100 µM (inactive) | > 100 µM (inactive) | > 100 µM (inactive) | > 100 µM (inactive)
12 | COC1(OC)C(N(C)C)=C(Cl)C(=O)/C1=C/C=O |  | > 100 µM (inactive) | > 100 µM (inactive) | 83.8 µM (inactive) | 61 µM (inactive) | 92 µM (inactive) |  | 20.9 µM (inactive) | > 100 µM (inactive) | 84.7 µM (inactive) | > 100 µM (inactive) | 53.8 µM (inactive) | > 100 µM (inactive) | > 100 µM (inactive) | > 100 µM (inactive) | 97.1 µM (inactive) | > 100 µM (inactive)
13 | Nc1ccn(C2(CO)C=C(CO)C(O)C2O)c(=O)n1 (centres undefined) | > 25.8 µM (inactive) |  | > 25.8 µM (inactive) | > 25.8 µM (inactive) | > 25.8 µM (inactive) | > 25.8 µM (inactive) | > 25.8 µM (inactive) |  |  |  | > 25.8 µM (inactive) | > 25.8 µM (inactive) | > 25.8 µM (inactive) | > 25.8 µM (inactive) | > 25.8 µM (inactive) | > 25.8 µM (inactive) | > 25.8 µM (inactive)
